US20250319136A1, “METHOD FOR PREPARING OLIGOD[…] USE” (Shenzhen ExoNeuglia Biomedical Technology Co., Ltd., priority 2022, published 2025)

Key:
[1] = tested on: hiPSC-derived NSCs; assay: OLIG2 immunostaining of hiPSC-derived NSCs at D12; format: cell-based, human; conditions: for effect on WIN-induced upregulation of OLIG2+ cells: co-treatment with WIN, D12
Experimental: (§1) In order to generate PAX6+/NESTIN+/SOX2+NSC, the dual SMAD neural induction method was used. hiPSCs with a density of ˜80% with neural induction medium (NIM) were treated from day 0 (DO) to day 7, and the medium was changed every day. Starting from D8, the medium was changed daily to fresh N2 medium containing RA (100 nM), purine amine (PUR, 1 μM) and WIN (1 μM). Starting from D12, cells were manually isolated and suspended in the ultra-low attachment plate in N2B27 medium containing RA (100 nM), PUR (1 μM) and WIN (1 μM), and the medium was changed every other day. Starting from D20, the spheroids were further suspended in PDGF-AA medium for culture. At D30, expanded spheroids were seeded on Matrigel-coated plates or Petri dishes with low growth factors in the glial differentiation medium (GDM).
(§2) The identification of cell markers in the present invention uses an immunofluorescence staining method, wherein cells (NSCs, OPCs and OLs) at different culture stages were cultured on confocal Petri dishes coated with Matrigel or Matrigel with reduced growth factors, washed three times with pre-cooled PBS, and fixed with 4% paraformaldehyde (PFA) at room temperature for 15 minutes. The fixed samples were then washed three times, permeabilized and blocked with blocking solution containing 0.5% triton X-100 and 2% bovine serum albumin (BSA) for 30 min at room temperature. The diluted primary antibodies listed in Table S2 were applied to cover the cells overnight at 4° C. The next day, the corresponding secondary antibodies (listed in Table S3) were added for staining in the dark for 60 min at room temperature after washing. DAPI containing anti-fluorescence quencher was then added to the culture dish for nuclear staining. Images were taken using a confocal microscope (Zeiss, LSM880) or an inverted microscope (Nikon, Eclipse Ti2-U).

[2] = tested on: hiPSC-derived NSCs; assay: Number of OLIG2+ spheroids in suspension culture at D20; format: cell-based, human; conditions: D20, n=3
Experimental: as §1

[3] = tested on: hiPSC-derived OPCs/OLs; assay: qRT-PCR relative mRNA expression in differentiating cells; format: cell-based, human
Source text: The present invention uses qRT-PCR to calculate the relative mRNA expression fold changes. The specific method is as follows: according to the manufacturer's instructions, the RNA rapid purification kit (ES science, Shanghai, China) was used to collect and purify the total RNA of cells and spinal cord tissue. After quantifying the RNA concentration with NANODROP ONE (Thermo Fisher Scientific, USA),
EasyScript® Integrated first-line cDNA synthesis Supermix and T100TM thermal cycler (BIO-RAD) was used for […] (one-step gDNA removal), and then PerfectStart Green qPCR SiperMix (TRNAS, China) and LightCycler® 96 (Roche) were used for quantification by qRT-PCR. All processes were performed according to the manufacturer's instructions. 2-AACt method was used to calculate the relative mRNA expression fold changes.

[4] = tested on: NSC; assay: Effect of WIN concentration series on NSC growth; format: cell-based, human; conditions: 1 μM WIN
[5] = tested on: D30 cells; assay: RNA SEQ on D30 cells; format: cell-based, human
Experimental: Total RNA was extracted using RNA rapid purification kit (ES science, Shanghai, China) according to the manufacturer's instructions. RNA library sequencing was performed on an Illumina HiseqTM 2500/4000 by Gene Denovo Biotechnology Co.,
Ltd. (Guangzhou, China). Bioinformatics analysis was performed using Omicsmart, which is a real-time interactive online platform for data analysis (http://www.omicsmart.com).

[6] = tested on: O4+ OPCs; assay: Nanofiber myelination assay; format: cell-based, human; conditions: after 2 weeks of culture
Experimental: O4+ OPC isolation was performed according to the manufacturer's instructions using MACS based on anti-O4 microbeads (MiltenyiBiotec, Germany). A single cell suspension was prepared by digesting cells with pre warmed Accutase at 37° C. for 30 min at day 44. After digestion, the cell mixture was diluted with pre-cooled DMEM/F12 and centrifuged at 300 g for 5 min at room temperature. The cells were then resuspended in DMEM/F12 and filtered through […] cell filter, and cells were collected by centrifugation at 300 g for 5 min at room temperature. After mixing evenly, the cell mixture was incubated in a refrigerator for 15 min. Then 1 mL of cold MACS buffer was added and centrifuged at 300 g for 10 min. The cell pellet was resuspended in 500 μL cold MACS buffer and mixed well. Afterwards, the cell mixture was added to the MS column and pre-rinsed using 500 μL cold MACS buffer in the magnetic field of a suitable MACS separator, and the column was washed three times with 500 μL buffer. Unlabeled cells were collected from the effluent. When the column reservoir was empty, the column was placed on a 15 mL collection tube and rinse with 1 mL buffer. Magnetically labeled cells were collected from the effluent by firmly pushing the plunger into the column. The eluted O4+ rich cells were then centrifuged at 300 g for 5 min and resuspended in 1 mL GDM. […]

[7] = tested on: hiPSC-derived cell spheres; assay: Cell migration out of spheroids; format: cell-based, human; conditions: after 36 hours, n=40
Experimental: In order to test the migration ability, the inventor carried out experiments on two dimensions of spheroid and single-cell state. First, the inventors have observed the ability of cells in the control and WIN groups to migrate out of the spheroids. Selected spheroids of the same size at day 30 from the control and WIN groups were seeded on 6-well plates coated with Matrigel with reduced growth factor in GDM medium. After 4, 12, 24, and 36 h, cell spheres and migrated cells were observed and imaged under an inverted microscope.

[8] = tested on: rat neuropathic pain models; conditions: cited from earlier work
[9] = tested on: hiPSC-derived OPCs; assay: OPC marker immunofluorescence and flow cytometry at D34; format: cell-based, human; conditions: D34, n=3
Experimental: as §2
Taking flow cytometry based on anti-O4-APC antibody as an example, 2 μL antibody was added to a 98 μL of single cell suspension containing 1×10^6 cells and cell staining buffer, mixed well and incubated for 10 min in the dark in a refrigerator. After incubation, cells were washed and dried. […]

[10] = tested on: hiPSC-derived OPCs; assay: In vitro maturation of OPCs to OLs (O4, GALC, MBP; immunofluorescence and flow cytometry); format: cell-based, human
Experimental: as §2
Taking flow cytometry based on anti-O4-APC antibody as an example, 2 μL antibody was added to a 98 μL of single cell suspension containing 1×10^6 cells and cell staining buffer, mixed well and incubated for 10 min in the dark in a refrigerator. After incubation, cells were washed and dried. The cell pellet was then resuspended in an appropriate amount of buffer and filtered through […] cell filter prior to analysis. Flow cytometry was performed on a CytoFLEX cytometer (Beckman, USA).

[11] = tested on: hiPSC-derived OPCs; assay: Scratch assay, single-cell migration; format: cell-based, human; conditions: at 48h, n=3
Experimental: In the scratch assay, 34-day-old cells were digested with pre-warmed accutase and filtered through […] cell filter to produce a single-cell suspension. After centrifugation, these single cells were seeded on a 24-well plate coated with Matrigel with reduced growth factor at the density of 2×10^6/mL and cultured with GDM. When the cell confluence reached 70-80%, a scratch was formed on the cell using 10 μL the pipette tip. After washing with DPB, fresh GDM was added to the wells. Cell images were collected at 0, 12, 24, 36, 48, 60, and 72 h using an inverted microscope. All images were measured and analyzed by Image J (i.e., software image J).

Row | Compound | effect on WIN-induced upregulation of OLIG2+ cells [1] | OLIG2+ spheroids relative to control group [2] [times] | mRNA expression level of PDGFR a compared with control group ([3]; D30, n=3, P<0.01) | mRNA expression of GALC ([3]; D55) | mRNA expression of MBP ([3]; D55) | mRNA expression of PLP1 ([3]; D55) | side effects on the growth of NSC [4] | genes down-regulated compared with control group [5] [genes] | genes up-regulated compared with control group [5] [genes] | area of nanofibers covered by MBP compared with control group [6] | number of MBP+ OLs on nanofibers compared with control group [6] | OLIG2-positive (OLIG2+) cells ([1]; 1 μM WIN, D12, n=3) [%] | average migration distance of cells from cell spheres [7] [μm] | analgesic activity [8] | cells expressing PDGFR α [9] | percentage of O4+ cells ([10]; D44, n=4) [%] | cells expressing immature OL marker GALC ([10]; D55, n=3) [%] | percentage of mature OLs co-expressing O4 and MBP ([10]; D66, n=3) [%] | migration rate in scratch experiment [11] [%]
1 | COc1ccc(C(=O)c2c(C)n(CCN3CCOCC3)c3cc(I)ccc23)cc1 [AM630] | significantly inhibited | – | – | – | – | – | – | – | – | – | – | – | – | – | – | – | – | – | –
2 | Cc1c(C(=O)NN2CCCCC2)nn(-c2ccc(Cl)cc2Cl)c1-c1ccc(Cl)cc1 [rimonabant, Rimonabant] | significantly inhibited | – | – | – | – | – | – | – | – | – | – | – | – | – | – | – | – | – | –
3 | Cc1c(C(=O)c2cccc3ccccc23)c2cccc3c2n1[C@H](CN1CCOCC1)CO3 [WIN, WIN55212-2] | – | 1.7 ±0.1 | up-regulated | up-regulated | up-regulated | up-regulated | no side effects on the growth of NSC | 98 | 983 | significantly increased | significantly increased | 95.4±0.2 | 203.7±6.3 | potent analgesic | more than 95.4±2.2% | 42.4±2.1 | 86.2±5.3 | 37.2±2.9 | 44.5±1.0
